# Tests used:
# [1] = test system: MM.1S-Luc-PD-L1 multiple myeloma cells; assay: Orthotopic MM.1S-Luc-PD-L1 multiple myeloma mouse model, luminescent imaging; assay type: in vivo, NSG mice; conditions: BCMAxCD3 10 μg/kg single IV dose day 21, anti-PD-1 5 mg/kg IP twice a week
# Method: MM.1 S-Luc multiple myeloma cells were engineered to express PD-L1 and are referred to as MM.1S-Luc-PD-L1. MM.1S-Luc-PD-L1 cells were prepared as a single cell suspension of 5×10^6 cells for intravenous (IV) inoculation into NSG mice.
# Tumor growth was monitored by luminescent imaging by intraperitoneal (IP) injection of luciferin solution in DPBS and imaged using Perkin Elmer IVIS Spectrum camera system. Animals were administered 2×10^7 expanded human T cells IV 19 days after tumor cell inoculation. Two days following T cell administration, a single dose of the BCMAxCD3 bispecific (10 μg/kg) was administered as a bolus IV injection. Anti-PD-1 antibody was administered twice a week as a bolus IP injection at 5 mg/kg for a total of 6 injections.
# Tumor growth was monitored via imaging measurements collected twice weekly. Mice were imaged using the Perkin Elmer IVIS Spectrum camera system with automatic parameter determination and a maximum imaging time of 3 minutes. Living Image software was used to collect the data. Regions of Interest (ROIs) were drawn around the entire body of the mouse, excluding as much as possible of the tail. Background flux, as measured on the anesthesia manifold, is subtracted from each ROI. Tumor measurements are expressed as total flux expressed in photons/sec (p/s). Study was terminated at day 40 post tumor inoculation.
# [2] = test system: Raji-luc lymphoma cells; assay: BCMAxCD3 mediated cell killing with human T cells, with or without GSI (luciferase viability); assay type: cell-based; conditions: with or without 1 μM GSI, 60 hours
# Method: CD3^+ T cells from PBMCs (Stem Cell Technologies) were negatively selected using EasySep Human T cell enrichment kit (Stem Cell Technologies). 10,000 target lymphoma cells expressing luciferase (Raji-luc) were treated with 1 μM GSI. After 24 hours, cells were seeded with 50,000 CD3^+ pan T cells in a clear 96-well V-bottom plate. Cells were further treated with a range of BCMAxCD3 bispecific concentrations with or without 1 μM GSI. 60 hours after treatment, luciferase activity in treated cells was analyzed using NeoLite reagent kit (Perkin Elmer) and acquired on VictorX multimode plate reader (Perkin Elmer). Cell viability was calculated by dividing luciferase activity of treated cells over luciferase activity of untreated control (no BCMAxCD3 bispecific antibody added).
substance,measurement,setting,value
"PF-06863135: heterodimeric humanized full-length bispecific antibody, one BCMA binding arm and one CD3 binding arm, modified human IgG2Δa Fc",Tumor measurements expressed as total flux,[1]; day 15 post tumor cell inoculation (before dosing),1.513 × 10^7 p/s
same,Tumor measurements expressed as total flux,[1]; day 18 post tumor cell inoculation (before dosing),8.343 × 10^7 p/s
same,Tumor measurements expressed as total flux,[1]; day 20 post tumor cell inoculation (before dosing),1.788 × 10^8 p/s
same,Tumor measurements expressed as total flux,[1]; day 25 post tumor cell inoculation,2.2729 × 10^7 p/s
same,Tumor measurements expressed as total flux,[1]; day 28 post tumor cell inoculation,7.082 × 10^7 p/s
same,Tumor measurements expressed as total flux,[1]; day 32 post tumor cell inoculation,7.076 × 10^7 p/s
same,Tumor measurements expressed as total flux,[1]; day 35 post tumor cell inoculation,8.712 × 10^8 p/s
same,Tumor measurements expressed as total flux,[1]; day 39 post tumor cell inoculation,6.776 × 10^8 p/s
same,Raji Cell Viability,[2]; BCMA × CD3 0.00064 nM,94 ± 3.7 % control
same,Raji Cell Viability,[2]; BCMA × CD3 0.0032 nM,107 ± 4.5 % control
same,Raji Cell Viability,[2]; BCMA × CD3 0.016 nM,105.8 ± 10.2 % control
same,Raji Cell Viability,[2]; BCMA × CD3 0.08 nM,89.3 ± 5.7 % control
same,Raji Cell Viability,[2]; BCMA × CD3 0.4 nM,88.1 ± 18.4 % control
same,Raji Cell Viability,[2]; BCMA × CD3 2 nM,71 ± 9.7 % control
same,Raji Cell Viability,[2]; BCMA × CD3 10 nM,82.1 ± 9.7 % control
same,Raji Cell Viability,[2]; BCMA × CD3 50 nM,80 ± 13.2 % control

# From patent US20230340137A1, “METHODS, THERAPIES AND USES FOR TREATING CANCER” (PFIZER INC., priority 2020, published 2023)
